Data set [1] is described as follows: Measurement of content level of sulfur in test compound (ICP). It is filed as physicochemical. The following applies: ICPS-8100, evaluation samples containing 0.01 wt % test compound. An excerpt:
The content level of sulfur in the sulfated saccharide is generally not less than 5 wt %, preferably not less than 10 wt %, more preferably not less than 15 wt %, and the upper limit is generally not more than 40 wt %, preferably not more than 35 wt %, more preferably not more than 30 wt %. […] Here, the content level of sulfur is a proportion in wt % of sulfur derived only from the sulfate group in sulfated saccharides, which can be measured by a method known in the field (e.g., rhodizonate method, elemental analysis or luminescent spectral analysis).
The content level of sulfur in the sulfated polymer is generally not less than 5 wt %, preferably not less than 10 wt %, more preferably not less than 15 wt %, and the upper limit is generally not more than 40 wt %. […] Here, the content level of sulfur is a proportion in wt % of sulfur in the sulfated polymer, which can be measured by a method known in the field such as rhodizonate method, elemental analysis or luminescent spectral analysis).
The relationship between the content level of sulfur in a test compound (sulfur content) and the cell proliferation promoting effect was examined. The sulfur content was measured using ICPS-8100 manufactured by SHIMADZU CORPORATION and analyzed using ICPS-8000 series Ver1.03. As the reference standard of sulfur, the standard for ICP-MS manufactured by Accu Standard was used. Sulfur reference standard solutions (0, 1, 10, 30, 50 ppm) were prepared, and the sulfur content of the evaluation samples containing 0.01 wt % test compound was measured by an analytical curve method.

Data set [2] concerns the target T1, bFGF (Homo sapiens, UniProt P09038).
T1 construct: purchased Lonza (via TAKARA BIO INC.) Ser. No. 00/190,632
Briefly: Evaluation of bFGF stabilization in Essential 8 medium (ELISA). It is filed as biochemical. Particulars: 37° C. for 7 days. The method, then: (§1) A commercially available measurement kit (human bFGF ELISA kit, ELH-bFGF-001, Ray Biotech) was used for quantification of bFGF in the medium. The measurement procedures followed the protocol attached to the kit. The bFGF concentration of the serum-free medium was calculated from the analytical curve (conversion formula) drawn from the absorbance of an analytical curve standard solution. The evaluation criteria of Tables 5-8 are as follows:
A test compound was dissolved in phosphate buffered saline, and diluted 10-fold with a serum-free medium to adjust the concentration shown in Table 4 (test sample). The test sample was left standing in a tightly sealed Falcon tube at 37° C. for 7 days, and the bFGF concentration was quantified by ELISA measurement. A phosphate buffered saline without a test compound was diluted 10-fold with Essential 8 medium or ReproFF2 medium, and left standing at 37° C. or 4° C. for 7 days, and used as a control.
A commercially available measurement kit (human bFGF ELISA kit, ELH-bFGF-001, Ray Biotech) was used for quantification of bFGF in the medium. The measurement procedures followed the protocol attached to the kit. The bFGF concentration of the serum-free medium was calculated from the analytical curve (conversion formula) drawn from the absorbance of an analytical curve standard solution. The evaluation criteria of Table 13 are as follows:
A test compound was dissolved in phosphate buffered saline, and diluted 10-fold with a serum-free medium to adjust the concentration shown in Table 12 (test sample). The test sample was left standing in a tightly sealed Falcon tube at 37° C. for 7 days, and the bFGF concentration was quantified by ELISA measurement. A phosphate buffered saline without a test compound was diluted 10-fold with Essential 8 medium or ReproFF2 medium, and left standing at 37° C. or 4° C. for 7 days, and used as a control.
(ELISA stands for enzyme-linked immunosorbent assay.)

The target in data set [3] is T1, bFGF. The data set can be described thus: Evaluation of bFGF stabilization in Lonza serum-free medium (ELISA). The format is biochemical. The following applies: for bFGF concentration relative to that of 4° C. control (ELISA): Lonza serum-free medium, 37° C. for 7 days; for effectiveness ELISA: effectiveness in ELISA evaluation of mesenchymal stem cells (medium), 4° C. control ratio. How it is done: A test compound was dissolved in phosphate buffered saline, and diluted 10-fold with a serum-free medium to adjust to the concentrations shown in Table 4 (test sample). The test sample was left standing in a tightly sealed Falcon tube at 37° C. for 7 days (Tables 5 to 8-2) or 3 days (Table 8-3), and the bFGF concentration was quantified by ELISA measurement. A phosphate buffered saline without a test compound was diluted 10-fold with a serum-free medium, and left standing at 37° C. or 4° C. for 7 days or 3 days, and used as a control.
as §1
A test compound was dissolved in phosphate buffered saline, and diluted 10-fold with a serum-free medium to adjust to the concentrations shown in Table 13 (test sample). The test sample was left standing in a tightly sealed Falcon tube at 37° C. for 7 days, and the bFGF concentration was quantified by ELISA measurement. A phosphate buffered saline without a test compound was diluted 10-fold with a serum-free medium, and left standing at 37° C. or 4° C. for 7 days, and used as a control.
A commercially available measurement kit (human bFGF ELISA kit, ELH-bFGF-001, Ray Biotech) was used for quantification of bFGF in the medium. The measurement procedures followed the protocol attached to the kit. The bFGF concentration of the serum-free medium was calculated from the analytical curve (conversion formula) drawn from the absorbance of an analytical curve standard solution. The evaluation criteria of Table 13 are as follows: […]

The test system of data set [4] is Human bone marrow-derived mesenchymal stem cells. The data set can be described thus: Mesenchymal stem cell proliferation system (cell number by DNA quantification).

T1 sequence (P09038 143-288): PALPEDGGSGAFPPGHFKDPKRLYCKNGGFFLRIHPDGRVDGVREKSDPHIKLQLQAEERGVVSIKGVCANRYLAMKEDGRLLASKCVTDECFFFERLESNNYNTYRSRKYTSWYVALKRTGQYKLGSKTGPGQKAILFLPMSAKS

Regarding `O=S(=O)([O-])OC1C(OS(=O)(=O)[O-])C(OS(=O)(=O)[O-])C(OS(=O)(=O)[O-])C(OS(=O)(=O)[O-])C1OS(=O)(=O)[O-].[K+].[K+].[K+].[K+].[K+].[K+]` (centres unmarked) [myo-inositol 6SO3K], in data set [1], the “sulfur content Found (inorganic analysis)” value (from here on “sulfur content Found”) is 19 wt %. Moreover, the “concentration showing a suppressive effect on a decrease in the bFGF concentration of the medium” value on bFGF [2] is reported as “not less than 25 μg/ml”. In addition, the “bFGF concentration relative to that of 4° C. control (ELISA)” value (shortened to “bFGF concentration relative to that”) on bFGF [2] (test compound 250 pg/ml) is “x (bFGF concentration was less than 10% relative to that of 4 °C control)”; at bFGF [2] (test compound 25 ng/ml), “x (bFGF concentration was less than 10% relative to that of 4 °C control)”; at bFGF [2] (test compound 250 ng/ml), “x (bFGF concentration was less than 10% relative to that of 4 °C control)”; at bFGF [2] (test compound 25 μg/ml), “+++ (bFGF concentration was not less than 70% relative to that of 4 °C control)”; at bFGF [2] (test compound 250 μg/ml), “+++ (bFGF concentration was not less than 70% relative to that of 4 °C control)”; at bFGF [3] (test compound 25 ng/ml), “x (bFGF concentration was less than 10% relative to that of 4 °C control)”. Also, the “bFGF concentration relative to that” value is “x (bFGF concentration was less than 10% relative to that of 4 °C control)” at bFGF [3] (test compound 250 ng/ml); “+ (bFGF concentration was not less than 30% and less than 50% relative to that of 4 °C control)” on bFGF [3] (test compound 25 μg/ml); “++ (bFGF concentration was not less than 50% and less than 70% relative to that of 4 °C control)” at bFGF [3] (test compound 250 μg/ml). Moreover, the “effectiveness ELISA” value at bFGF [3] is “+++ (+++ 70%<)”.

For glucose SO3Na, in data set [1], the “sulfur content Found” value is listed as 23 wt %. Also, the “concentration showing a suppressive effect on a decrease in the bFGF concentration of the medium” value on bFGF [2] is “not less than 2.5 mg/ml”. Besides, the “bFGF concentration relative to that” value at bFGF [2] (test compound 250 pg/ml) is “x (bFGF concentration was less than 10% relative to that of 4 °C control)”; at bFGF [2] (test compound 25 ng/ml) it was “x (bFGF concentration was less than 10% relative to that of 4 °C control)”; on bFGF [2] (test compound 250 ng/ml), “x (bFGF concentration was less than 10% relative to that of 4 °C control)”; on bFGF [2] (test compound 25 μg/ml), “+++ (bFGF concentration was not less than 70% relative to that of 4 °C control)”; on bFGF [2] (test compound 250 μg/ml) it was “+++ (bFGF concentration was not less than 70% relative to that of 4 °C control)”; at bFGF [3] (test compound 25 ng/ml) it was “x (bFGF concentration was less than 10% relative to that of 4 °C control)”. For the same compound, the “bFGF concentration relative to that” value on bFGF [3] (test compound 250 ng/ml) was “x (bFGF concentration was less than 10% relative to that of 4 °C control)”; on bFGF [3] (test compound 25 μg/ml) it was “x (bFGF concentration was less than 10% relative to that of 4 °C control)”; on bFGF [3] (test compound 250 μg/ml) it was “− (bFGF concentration was not less than 10% and less than 30% relative to that of 4 °C control)”. On bFGF [3], the “effectiveness ELISA” value was “+ (+ 30%<)”.

On to glycerol SO3Na, for which the “sulfur content Found” value in data set [1] is 23 wt %. For the same compound, the “bFGF concentration relative to that” value on bFGF [3] (test compound 25 ng/ml), on bFGF [3] (test compound 250 ng/ml), on bFGF [3] (test compound 25 μg/ml) and on bFGF [3] (test compound 250 μg/ml) was “x (bFGF concentration was less than 10% relative to that of 4 °C control)” throughout. Also, on bFGF [3], the “effectiveness ELISA” value is “+ (+ 30%<)”.

Take tartrate-SO3Na: in data set [4] (growth of mesenchymal stem cell, control ratio), the effectiveness cells entry was “◯ (◯ not leas than 100%)”. Also, the “concentration showing promoted cell proliferation as compared to the control” value in data set [4] (mesenchymal stem cells, Lonza serum-free medium) was found to be 2.5 ng/mL. Moreover, the “concentration showing a suppressive effect on a decrease in the bFGF concentration of the medium” value on bFGF [2] is “not less than 250 μg/ml”. The “bFGF concentration relative to that” value is “x (bFGF concentration was less than 10% relative to that of 4 °C control)” at bFGF [2] (test compound 250 pg/ml); “x (bFGF concentration was less than 10% relative to that of 4 °C control)” on bFGF [2] (test compound 25 ng/ml); “x (bFGF concentration was less than 10% relative to that of 4 °C control)” at bFGF [2] (test compound 250 ng/ml); “x (bFGF concentration was less than 10% relative to that of 4 °C control)” on bFGF [2] (test compound 25 μg/ml); “− (bFGF concentration was not less than 10% and less than 30% relative to that of 4 °C control)” on bFGF [2] (test compound 250 μg/ml); “x (bFGF concentration was less than 10% relative to that of 4 °C control)” at bFGF [3] (test compound 25 ng/ml). In addition, the “bFGF concentration relative to that” value at bFGF [3] (test compound 250 ng/ml) is “− (bFGF concentration was not less than 10% and less than 30% relative to that of 4 °C control)”; at bFGF [3] (test compound 25 μg/ml), “x (bFGF concentration was less than 10% relative to that of 4 °C control)”; on bFGF [3] (test compound 250 μg/ml), “x (bFGF concentration was less than 10% relative to that of 4 °C control)”. For the same compound, the “concentration at which a decrease in the protein amount of FGF is not suppressed” value at bFGF [3] (as shown in the Examples (methods of Examples I-1 and II-1)) is recorded as “not more than 250 μg/ml”. Besides, the “effectiveness ELISA” value at bFGF [3] is reported as “++ (++ 50%<)”.

The record behind these values is US10689622B2, “Culture medium for proliferating stem cell, which contains sulfated compound” (AJINOMOTO CO., INC., priority 2012, dated 2020).
